Results as given in article PMC3220703, “Effects of DPP-4 Inhibitors on the Heart in a Rat Model of Uremic Cardiomyopathy” (PLoS ONE, 2011).
One block for each molecule: values may come before it.

What was measured:
5/6N rats = experiment: Markers of kidney function before and after drug administration in 5/6N rats; assay type: in vivo, rat; settings: for effect on concentration of osteopontin: 4 days of treatment vs pre-treatment; for Osteopontin: mean±SEM
Experimental: Creatinine concentration was measured by the Jaffe colorimetric method. Creatinine clearance was estimated as described previously.
For each parameter, the log10-transformed values were analyzed separately using an ANOVA for repeated measurements with factors for experimental group and time as fixed effects. […] These statistical analyses were carried out with the software product SAS (SAS Institute, Cary, NC USA), version 9.2.

[1] = Pharmacokinetics: plasma AUC(0-∞) in sham-operated and 5/6N rats (HPLC-MS/MS); assay type: in vivo, rat; settings: day 4, mean±SEM; for AUC(0-inf): rat, plasma, po
Experimental: Sham-operated rats were divided into four control groups (N = 5–6 rats per group) in the same manner.
Chromatography for all assays was achieved on a Phenomenex Luna Phenyl-Hexyl 100A, 3 µm, 50×2 mm analytical HPLC column with gradient elution. The analytes were detected and quantified by HPLC-MS/MS using electrospray ionization in the positive ion mode.
Pharmacokinetic analysis was performed using non-compartmental methods with ToxKin V 3.5 (LogicaCMG ITS AG, Switzerland). The linear trapezoidal rule was used for AUC calculation. The terminal half-life (t(1/2)) was calculated as t(1/2) = ln2/λ(z) with the terminal elimination rate constant λ(z) as slope of the logarithmic-linear regression line lnC(t) = lnC(0 h) – λ(z) × t of two or three data points in the terminal phase. Extrapolated AUC(rest, tz-∞) was calculated according to Aronson et al, using the calculated concentration and time (t(z)) of the last measurable data point.

active GLP-1 = experiment: Plasma active GLP-1 levels after linagliptin; assay type: in vivo, rat
Source text: Figure 5 Active GLP-1 levels in uremic vs sham animals. […] Following the last dose, plasma was taken after the time points indicated and active GLP-1 was detected. Values are given as mean ± SEM. N = 5 sham-operated, and 8-12 rats for 5/6N.
Active (uncleaved, 7–36 amide or 7–37) GLP-1 was detected using the commercially available Multi-Array Assay System (K150JWC) from Meso Scale Discovery following the instructions of the supplier.

uremic rat heart = experiment: Quantitative real-time PCR of BNP and fibrosis markers in uremic rat heart; assay type: in vivo; settings: 7 µmol/kg, 4 days; 5/6N rats; vs untreated 5/6N; in words
Experimental: Total RNA was extracted from 50 mg snap-frozen tissue by homogenization in peqGold Trifast reagent (Peqlab). Residual genomic DNA was removed with Turbo DNAse (Applied Biosystems). The RNA concentration and purity were assayed by spectrophotometry. First-strand cDNA synthesis was performed with random hexamer primer and 1 µg RNA using High Capacity cDNA Reverse Transcription Kit (Applied Biosystems) according to the manufacturer's instruction. (For further detail see Vinon-Zellweger et al.)
Sequences from the Ensemble database and the online available Primer3 software were used to create specific, intron-spanning primers for the target genes. […] Synthesized primers were obtained from Sigma-Aldrich®.
A total of 10 ng cDNA in 5 µl was normally used as template for amplification. An additional 0.5 µl of each primer (5 pmol) and 12.5 µl of Power SYBR Green PCR Master Mix (Applied Biosystems) were added and diluted with water to a volume of 25 µl. The PCR was performed on an Mx3000P thermal cycler (Stratagene). Reaction conditions were 95°C for 10 min, 40 cycles at 95°C for 15 sec, and 60°C for 60 sec, followed by an examination of the melting curve. All samples were analyzed in triplicate. The amplification efficiency of every reaction was checked with the linear regression method. Expression of the gene of interest was divided by the housekeeping gene, glyceraldehyde-3-phosphate dehydrogenase, and expressed as fold-change compared with the corresponding sham-operated rats group.

[2] = cited from earlier work; for main elimination route: in words
[3] = after (4 days + 72 h) administration, 7.0 µmol/kg
[4] = vs pre-treatment values, in words
[5] = 7 umol/kg, 5/6N rats, 7 µmol/kg oral once daily
[6] = 7 umol/kg, sham-operated rats, 7 µmol/kg oral once daily
[7] = before drug administration, 7.0 µmol/kg group

change of cystatin C following 4 days of treatment (5/6N rats; [4]): significantly increased
AUC(0-inf) [1, 5]: 2.44 ± 0.167 µM·h
AUC(0-inf) [1, 6]: 1.77 ± 0.226 µM·h
Structure (SMILES): Cn1c(=O)cc(N2CCC[C@@H](N)C2)n(Cc2ccccc2C#N)c1=O [Alogliptin, alogliptin]
effect on concentration of osteopontin (5/6N rats; 7.0 µmol/kg, in words): significantly reduced
Osteopontin (5/6N rats; [3]): 39.1 ± 8.8 ng/mL

change of cystatin C following 4 days of treatment (5/6N rats; [4]): trend toward decreasing
AUC(0-∞) ([1]; 5/6N rats, 7 µmol/kg oral once daily): 0.7482 ± 0.07452 µM·h
AUC(0-inf) ([1]; 0.5 umol/kg, 5/6N rats, 0.5 µmol/kg oral once daily): 0.258 ± 0.0214 µM·h
AUC(0-inf) ([1]; 0.5 umol/kg, sham-operated rats, 0.5 µmol/kg oral once daily): 0.267 ± 0.0289 µM·h
AUC(0-inf) [1, 5]: 1.25 ± 0.373 µM·h
AUC(0-inf) [1, 6]: 0.748 ± 0.0745 µM·h
AUC(0-∞) ([1]; sham-operated rats, 7 µmol/kg oral once daily): 1.252 ± 0.3788 µM·h
Structure (SMILES): CC#CCn1c(N2CCC[C@@H](N)C2)nc2c1c(=O)n(Cc1nc(C)c3ccccc3n1)c(=O)n2C [Linagliptin, linagliptin]
effect on concentration of osteopontin (5/6N rats; 0.5 µmol/kg, p<0.001, in words): significantly reduced
effect on concentration of osteopontin (5/6N rats; 7.0 µmol/kg, in words): did not reach statistical significance
Osteopontin (5/6N rats; after (4 days + 72 h) administration, 0.5 µmol/kg): 48.1 ± 3.8 ng/mL
Osteopontin (5/6N rats; [3]): 49.4 ± 10.7 ng/mL
Osteopontin (5/6N rats; before drug administration, 0.5 µmol/kg group): 70.9 ± 4.7 ng/mL
Osteopontin (5/6N rats; [7]): 54.2 ± 10.0 ng/mL
GLP-1 AUC (active GLP-1; 7 μmol/kg, 5/6N): 201 ng·h/L
GLP-1 AUC (active GLP-1; 7 μmol/kg, sham): 108 ng·h/L
GLP-1 AUC (active GLP-1; 5/6N rats, linagliptin 7 µmol/kg daily for 4 days): 201.0 ng·h/L
increase in GLP-1 in 5/6N rats compared with sham-treated rats (active GLP-1; linagliptin 7 µmol/kg, p = 0.01): 2 fold
GLP-1 AUC (active GLP-1; sham rats, linagliptin 7 µmol/kg daily for 4 days): 108.6 ng·h/L
mRNA expression of BNP in uremic rat heart (uremic rat heart): significantly reduced
mRNA expression of Col1α1 in uremic rat heart (uremic rat heart): significantly inhibited
mRNA expression of Col3α1 in uremic rat heart (uremic rat heart): significantly inhibited
mRNA expression of TGF-β1 in uremic rat heart (uremic rat heart): significantly inhibited
mRNA expression of TIMP-1 in uremic rat heart (uremic rat heart): significantly inhibited
eliminated via the urine ([2]; oral): 1–5%
elimination via the bile, share of the orally administered dose ([2]; oral): approximately 85%

change of cystatin C following 4 days of treatment (5/6N rats; [4]): unchanged
AUC(0-inf) [1, 5]: 6.24 ± 0.423 µM·h
AUC(0-inf) [1, 6]: 3.69 ± 0.103 µM·h
Structure (SMILES): N[C@@H](CC(=O)N1CCn2c(nnc2C(F)(F)F)C1)Cc1cc(F)c(F)cc1F [Sitagliptin, sitagliptin]
effect on concentration of osteopontin (5/6N rats; 7.0 µmol/kg, in words): significantly reduced
Osteopontin (5/6N rats; [3]): 33.4 ± 2.4 ng/mL
Osteopontin (5/6N rats; [7]): 48.5 ± 4.4 ng/mL
change of β2-microglobulin concentration following 4 days of treatment (5/6N rats; [4]): increasing the concentration of β2-microglobulin
main elimination route [2]: via the kidney

Structure (SMILES): N#C[C@@H]1CCCN1C(=O)CNC12CC3CC(CC(O)(C3)C1)C2 [vildagliptin]
main elimination route [2]: via the kidney
